# Measured values published in article PMC8230625 (International Journal of Molecular Sciences, 2021).
# pEC50, pIC50: −log10 of the molar value. Several values for one entry are separate records, joined by “and”; a condition that tells them apart may be missing. Identical values can stand only once. Like-named read-outs stand apart in the source and are kept apart here.
# How the values were obtained:
# [1] = target: T1, hERα (Saccharomyces cerevisiae BLYES strain) (Homo sapiens, UniProt P03372); assay: cell-based; format: cell-based; details: for CI Value (combination index) / Combined Estrogenic Effect / Combined Estrogenic Effect (grade symbol): + 6.28 × 10^−2 µM ZEN; for Combined estrogenic effect in Figure 5B: + 62.8 ×10^-3 μM ZEN; for Effect of subtoxic (non-estrogenic) concentration of the compound on the estrogenic effect of ZEN: co-treatment with ZEN (approx. 20% estrogenicity), α-ZEL 1.56 × 10^−3 µM, ZAN 6.24 × 10^−3 µM, AOH up to 48.4 µM, Figure 5A; for Concentration at (and above) which statistically significant (p < 0.01) estrogenic effect was observed: single compound
# T1 construct: expressed in transfected cells; host or cells: Saccharomyces cerevisiae BLYES strain (hERα gene integrated in the chromosome)
# Text: The Saccharomyces cerevisiae BLYES strain was applied to examine the estrogenic activity of the compounds tested. This bioluminescent yeast bioreporter harbors the hERα gene on its chromosome, and it has two plasmids with genes responsible for bioluminescence. The pUTK404 plasmid contains luxC, -D, and -E genes from Photorhabdus luminescens and flavin oxidoreductase gene (frp) from Vibrio harveyi. The pUTK407 plasmid contains tandem estrogen responsive elements (EREs) that initiate the transcription of luxA and luxB genes after binding the dimer formed by estrogen receptor—ligand complexes.
# S. cerevisiae BLYES strain was grown in 30 mL of yeast growth medium (YMM leu-, ura-) for 18–20 h at 30 °C.
# Stock solutions of the compounds tested were prepared in methanol and stored at −20 °C. Estrogen assays were carried out on 96-well (PS, F-bottom) microplates (Greiner Bio-One Hungary Ltd., Mosonmagyaróvár, Hungary). In single compound tests, stock solutions of the compounds were serially diluted with methanol; whereas, in co-exposure experiments, a 20-µL mixture of the solutions was placed into the wells of the microplates. After the evaporation of methanol, yeast culture (200 µL; OD600 of 1.000 ± 0.050) were pipetted into each well. E2 was applied as a positive control, while wells containing only yeast cells and yeast cells with methanol served as negative and solvent controls, respectively. Bioluminescence (cps, counts per second) was measured after 5-h incubation (30 °C) with a VictorX Multilabel Plate Reader (Perkin Elmer Inc., Waltham, MA, USA).
# (§1) Combined effects were evaluated based on combination indices (CI) determined using the CompuSyn software (ComboSyn Inc., Paramus, NJ, USA) by the median-effect equation of the mass-action law:(1) logfa/fu=m×log(D)−m×log(Dm), where fa and fu are the affected and unaffected fractions of the system, respectively; D represents the dose, Dm denotes the dose necessary for the production of median effect, while m is the sigmoidicity coefficient (m > 1 sigmoidal, m = 1 hyperbolic, m < 1 flat sigmoidal).
# (§2) The combined effects of mycotoxins were determined by the CI values calculated based on the following equation [68]:(2) CI=(D)1/(Dx)1+(D)2/(Dx)2, where (Dx)1 and (Dx)2 are the individual doses necessary for the production of x% effect, while (D)1 and (D)2 are the doses of the two compounds that combined evoke the same effect as (Dx)1 alone or (Dx)2 alone, i.e., the targeted x% effect.
# Zero percent was defined in each measurement as the mean of the methanol control values, and 100% was defined as the mean of all plateau values of single compounds’ concentration—response curves.
# [2] = test system: HeLa cells; assay: in vitro; details: for Concentration at (and above) which statistically significant (p < 0.01) decrease in cell viability was noticed: 24 h incubation, single compound; for pIC50: Homo sapiens, read-out: Dm (IC50), viability of HeLa cells (ATP/well)
# Protocol: (§3) The HeLa cervical cancer adherent cell line (ATCC: CCL-2) was applied for the evaluation of individual and combined effects of mycotoxins on cell viability. The cells were cultured in DMEM (high glucose, 4500 mg/L) with 10% FBS, penicillin (100 U/mL), and streptomycin (100 μg/mL) in sterile plastic cell culture flasks (75 cm^2; 5% CO2, 37 °C). The cells were trypsinized and plated onto 96-well sterile plastic plates. Stock solutions (each 5000 μM) of ZEN, ZELs, ZAN, and ZALs used in cell experiments were prepared in 96 v/v% ethanol (spectroscopic grade; VWR, Debrecen, Hungary). Stock solutions of AOH (5000 μM or 40 mM) were prepared in spectroscopic grade dimethyl sulfoxide (DMSO; Fluka, Morris Plains, NJ, USA). Mycotoxin stock solutions were stored at −20 °C.
# (§4) HeLa cells were treated with ZEN, α/β-ZEL, ZAN, α/β-ZAL, and AOH (0–250 μM) for 24 h. […] The cell viability was evaluated based on the ATP levels/well employing a previously described method without modifications.
# as §1, §2
# [3] = in vitro; details: human
# Protocol: as §3, §4, §1, §2
# [4] = BLYES, higher concentration (µM): α-ZEL 1.25 × 10^−2, β-ZEL 2.43, ZAN 4.99 × 10^−2, α-ZAL 2.48 × 10^−2, β-ZAL 2.48 × 10^−1, GEN 1.48
# [5] = BLYES, higher estrogenic concentration of the compound (as E22)
# [6] = BLYES, lower concentration (µM): α-ZEL 6.24 × 10^−3, β-ZEL 1.22, ZAN 2.50 × 10^−2, α-ZAL 1.24 × 10^−2, β-ZAL 1.24 × 10^−1, GEN 7.4 × 10^−1
# [7] = BLYES, lower estrogenic concentration of the compound (as E21)
# [8] = BLYES, higher estrogenic concentration of the compound (as E20)
# [9] = BLYES, lower estrogenic concentration of the compound (as E19)
# [10] = HeLa, 24 h, 10 µM (lower toxic concentration) of the compound + 20 µM ZEN
# [11] = HeLa, 24 h, 10 µM of the compound + 20 µM ZEN
# [12] = HeLa, 24 h, 10 µM of the compound + 20 µM ZEN, CompuSyn
# [13] = HeLa, 24 h, 30 µM (higher toxic concentration) of the compound + 20 µM ZEN
# [14] = HeLa, 24 h, 30 µM of the compound + 20 µM ZEN
# [15] = HeLa, 24 h, 30 µM of the compound + 20 µM ZEN, CompuSyn
# T1 sequence (P03372 whole entry): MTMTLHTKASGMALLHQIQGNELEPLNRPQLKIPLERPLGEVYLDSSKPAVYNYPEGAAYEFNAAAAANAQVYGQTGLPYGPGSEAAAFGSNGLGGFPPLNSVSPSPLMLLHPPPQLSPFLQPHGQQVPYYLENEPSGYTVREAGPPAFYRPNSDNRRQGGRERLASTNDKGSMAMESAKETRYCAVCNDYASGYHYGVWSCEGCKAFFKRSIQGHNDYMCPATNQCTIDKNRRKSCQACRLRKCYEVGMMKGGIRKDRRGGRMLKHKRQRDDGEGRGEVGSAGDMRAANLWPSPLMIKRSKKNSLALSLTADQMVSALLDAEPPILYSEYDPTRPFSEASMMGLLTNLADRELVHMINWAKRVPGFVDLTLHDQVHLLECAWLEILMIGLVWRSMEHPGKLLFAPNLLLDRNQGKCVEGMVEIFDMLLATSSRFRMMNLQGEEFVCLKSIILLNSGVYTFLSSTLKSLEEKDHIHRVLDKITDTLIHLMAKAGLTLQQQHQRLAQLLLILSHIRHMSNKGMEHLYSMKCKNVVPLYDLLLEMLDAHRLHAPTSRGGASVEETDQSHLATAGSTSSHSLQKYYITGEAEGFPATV
SMILES,pEC50 [1],"CI Value (combination index) [1, 4]","Combined Estrogenic Effect [1, 5]","Combined Estrogenic Effect (grade symbol) [1, 5]","CI Value (combination index) [1, 6]","Combined Estrogenic Effect [1, 7]","Combined Estrogenic Effect (grade symbol) [1, 7]","Combined estrogenic effect in Figure 5B [1, 8]","Combined estrogenic effect in Figure 5B [1, 9]",Concentration at (and above) which statistically significant (p < 0.01) estrogenic effect was observed ([1]; BLYES),"Combined cytotoxic effect in Figure 3B [2, 10]","Combined Cytotoxic Effect [2, 11]","Combined Cytotoxic Effect (grade symbol) [2, 11]","Combined cytotoxic effect in Figure 3B [2, 13]","Combined Cytotoxic Effect [2, 14]","Combined Cytotoxic Effect (grade symbol) [2, 14]",Concentration at (and above) which statistically significant (p < 0.01) decrease in cell viability was noticed ([2]; HeLa),"pIC50 ([2]; HeLa, 24 h)",cytotoxicity at 10 µM [3],cytotoxicity at 30 µM [3],also measured
"C[C@H]1CCCC(=O)CCCCCc2cc(O)cc(O)c2C(=O)O1 [ZAN, zearalanone]",7.32,0.62,Synergism (CI < 0.8: synergism),+ (0.60 < CI < 0.80: +),0.58,Synergism (CI < 0.8: synergism),++ (CI < 0.60: ++),synergism,synergism,0.012 µM,Syn and synergism,Synergism (CI < 0.8: synergism),++ (CI < 0.60: ++),Syn and synergism,Synergism (CI < 0.8: synergism),+ (0.60 < CI < 0.80: +),10 µM,4.21,13.2%,34.8%,"Effect of subtoxic (non-estrogenic) concentration of the compound on the estrogenic effect of ZEN ([1]; BLYES): statistically significant (p < 0.05) increases; CI Value (combination index) [2, 12]: 0.55; CI Value (combination index) [2, 15]: 0.77"
"C[C@H]1CCCC(=O)CCC/C=C/c2cc(O)cc(O)c2C(=O)O1 [ZEN, zearalenone]",6.34,–,–,–,–,–,–,–,–,0.031 µM,–,–,–,–,–,–,10 µM,4.25,–,–,"Estrogenic effect (% increase), individual effect ([1]; BLYES, ZEN alone at 62.8 ×10^-3 μM (6.3 × 10^−2 µM)): approximately 20%; cytotoxicity ([2]; read-out: Decrease in cellular ATP levels (% of control), individual effect, HeLa, 24 h, single compound at 20 μM, 20 µM): ~30%; cytotoxicity at 24 h, 20 µM ([3]; Decrease in cellular ATP levels (% of control), individual effect, HeLa, 24 h, single compound at 20 μM): 30.1%"
"C[C@H]1CCC[C@H](O)CCCCCc2cc(O)cc(O)c2C(=O)O1 [α-ZAL, α-zearalanol]",7.72,1.16,Additive effect (0.8 < CI < 1.2: additive effect),± (0.80 < CI < 1.20: ±),0.97,Additive effect (0.8 < CI < 1.2: additive effect),± (0.80 < CI < 1.20: ±),additive combined effects,additive combined effects,0.024 µM,Syn,Synergism (CI < 0.8: synergism),++ (CI < 0.60: ++),Syn,Synergism (CI < 0.8: synergism),+ (0.60 < CI < 0.80: +),20 µM,4.20,1.9%,19.3%,"CI Value (combination index) [2]: 0.78 and 0.52; Effect of the non-toxic (subtoxic) concentration of the compound on ATP levels of ZEN-exposed cells ([2]; HeLa, 24 h, co-exposure with toxic concentration of ZEN (20 μM), compared to ZEN-exposed cells, Figure 3A): statistically significant (p < 0.01) decreases in ATP levels"
"C[C@H]1CCC[C@H](O)CCC/C=C/c2cc(O)cc(O)c2C(=O)O1 [α-ZEL, α-zearalenol]",7.72,0.41,Synergism (CI < 0.8: synergism),++ (CI < 0.60: ++),0.37,Synergism (CI < 0.8: synergism),++ (CI < 0.60: ++),synergism,synergism,–,Syn,Synergism (CI < 0.8: synergism),++ (CI < 0.60: ++),Add,Additive effect (0.8 < CI < 1.2: additive effect),± (0.80 < CI < 1.20: ±),20 µM,4.35,5.5%,38.4%,"Effect of subtoxic (non-estrogenic) concentration of the compound on the estrogenic effect of ZEN ([1]; BLYES): statistically significant (p < 0.05) increases; CI Value (combination index) [2, 12]: 0.57; CI Value (combination index) [2, 15]: 0.81"
